The record followed here is patent US8580832B2, “Substituted phenoxy aminothiazolones as estrogen related receptor-α modulators” (Janssen Pharmaceutica N.V., priority 2007, dated 2013).

The target of the test is T1, ERR1 (also known as ERR-α or ERR-1) (Homo sapiens, UniProt P11474).
T1 construct: the ^6His-tagged-ERR1 LBD
T1 sequence (P11474 193-421 limits assumed): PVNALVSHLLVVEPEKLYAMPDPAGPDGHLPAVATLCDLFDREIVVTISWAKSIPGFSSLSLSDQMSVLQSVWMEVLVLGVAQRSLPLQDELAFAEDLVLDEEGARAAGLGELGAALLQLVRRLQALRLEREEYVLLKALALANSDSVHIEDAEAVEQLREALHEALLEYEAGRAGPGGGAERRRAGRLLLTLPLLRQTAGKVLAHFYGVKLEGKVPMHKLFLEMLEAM
Put plainly: TR-FRET assay: disruption of co-activator peptide binding to ERR1 LBD. The test is classed as biochemical. The note with it: 6His-tagged ERR1 LBD 6 nM, GST-SRC-2 peptide 6 nM, 25° C., 4-18 hours; average of 3 independent experiments. The protocol:
Time-Resolved Fluorescence Resonance Energy Transfer (TR-FRET) experiments were performed to examine the functional response of ERR1 (also known as ERR-α or ERR-1) ligands. The TR-FRET assay described herein relied on the conformation of ERR1 for binding to a co-activator peptide: when a test compound binds to ERR1 and alters its conformation, it can disrupt the binding of the co-activator peptide. The components of this homogeneous secondary assay included: the ^6His-tagged-ERR1 LBD, a GST-labeled-hSRC2 co-activator polypeptide and a fluorescent donor/acceptor pair from CIS bio international htrf/bioassays (Bedford, Mass.) using both an α-GST Europium Cryptate (Eu) label and an α^6His-XL665 (allophycocyanin) fluorophore.
For TR-FRET measurements, the reaction was buffered in 25 mM Tris pH 8, 2.5 mM Hepes, 20 mM KCl, 1 mM DTT, and 0.05 mg/mL BSA (-lipids). […] Reactions were allowed to reach equilibrium at 25° C. for 4-18 hours before collecting data on the Analyst from LJL Biosystems (Molecular Devices Sunnyvale, Calif.). […] Dose response curves were fitted using a hyperbolic equation and the data reported is the average of 3 independent experiments.

Structures are written as SMILES.

In turn, `N#Cc1ccc(Oc2ccc(/C=C3\SC(NC4CCN(CCO)CC4)=NC3=O)cc2F)c(C(F)(F)F)c1` [Example 112, 4-(2-Fluoro-4-{2-[1-(2-hydroxy-ethyl)-piperidin-4-ylamino]-4-oxo-4H-thiazol-5-ylidenemethyl}-phenoxy)-3-trifluoromethyl-benzonitrile] yielded an EC50 of 26 nM. With `COC(=O)CCCNC1=NC(=O)/C(=C/c2ccc(Oc3ccc(C#N)cc3C(F)(F)F)c(OC)c2)S1` [Example 82, 4-{5-[4-(4-Cyano-2-trifluoromethyl-phenoxy)-3-methoxy-benzylidene]-4-oxo-4,5-dihydro-thiazol-2-ylamino}-butyric acid methyl ester] the figure was 55 nM; with `CCOc1cc(/C=C2\SC(N3CC(C(=O)O)C3)=NC2=O)ccc1Oc1ccc(C#N)cc1C(F)(F)F` [Example 55, 1-{5-[4-(4-Cyano-2-trifluoromethyl-phenoxy)-3-ethoxy-benzylidene]-4-oxo-4,5-dihydro-thiazol-2-yl}-azetidine-3-carboxylic acid], 16 nM. With `N#Cc1ccc(Oc2ccc(/C=C3\SC(N)=NC3=O)cc2F)c2ccccc12` [Compound 4, 4-[2-Fluoro-4-(2-imino-4-oxo-thiazolidin-5-ylidenemethyl)-phenoxy]-naphthalene-1-carbonitrile] the figure was 18 nM; with `COc1cc(/C=C2\SC(NCCNC(N)=O)=NC2=O)ccc1Oc1ccc(C#N)cc1C(F)(F)F` [Example 74, (2-{5-[4-(4-Cyano-2-trifluoromethyl-phenoxy)-3-methoxy-benzylidene]-4-oxo-4,5-dihydro-thiazol-2-ylamino}-ethyl)-urea], 17 nM; with `COc1cc(/C=C2\SC(NCCCN3CCOCC3)=NC2=O)ccc1Oc1ccc(C#N)cc1C(F)(F)F` [Example 27, 4-{2-Methoxy-4-[2-(3-morpholin-4-yl-propylamino)-4-oxo-4H-thiazol-5-ylidenemethyl]-phenoxy}-3-trifluoromethyl-benzonitrile], 11 nM. With `N#Cc1ccc(Oc2ccc(/C=C3\SC(N(CCO)CCO)=NC3=O)cc2F)c(C(F)(F)F)c1` [Example 41, 4-(4-{2-[Bis-(2-hydroxy-ethyl)-amino]-4-oxo-4H-thiazol-5-ylidenemethyl}-2-fluoro-phenoxy)-3-trifluoromethyl-benzonitrile] the figure was 18 nM; with `COc1cc(/C=C2\SC(NC[C@H](O)CO)=NC2=O)ccc1Oc1ccc(C#N)cc1C(F)(F)F` [Example 35, 4-{4-[2-(2S,3-Dihydroxy-propylamino)-4-oxo-4H-thiazol-5-ylidenemethyl]-2-methoxy-phenoxy}-3-trifluoromethyl-benzonitrile], 13 nM. As for `COc1cc(/C=C2\SC(NC3CCOCC3)=NC2=O)ccc1Oc1ccc(C#N)cc1C(F)(F)F` [Compound 15, 4-{2-Methoxy-4-[4-oxo-2-(tetrahydro-pyran-4-ylamino)-4H-thiazol-5-ylidenemethyl]-phenoxy}-3-trifluoromethyl-benzonitrile], the EC50 came out at 18 nM. The value for `COc1cc(/C=C2\SC(N(C)OC)=NC2=O)ccc1Oc1ccc(C#N)cc1C(F)(F)F` [Example 75, 4-{2-Methoxy-4-[2-(methoxy-methyl-amino)-4-oxo-4H-thiazol-5-ylidenemethyl]-phenoxy}-3-trifluoromethyl-benzonitrile] was 32 nM; that for `COc1cc(/C=C2\SC(NC3CCN(CCO)CC3)=NC2=O)ccc1Oc1ccc(C#N)cc1C(F)(F)F` [Example 111, 4-(4-{2-[1-(2-Hydroxy-ethyl)-piperidin-4-ylamino]-4-oxo-4H-thiazol-5-ylidenemethyl}-2-methoxy-phenoxy)-3-trifluoromethyl-benzonitrile] was 15 nM; that for `COc1cc(/C=C2\SC(N3CCNC(=O)C3)=NC2=O)ccc1Oc1ccc(C(F)(F)F)cc1C(F)(F)F` [Example 59, 4-{5-[4-(2,4-Bis-trifluoromethyl-phenoxy)-3-methoxy-benzylidene]-4-oxo-4,5-dihydro-thiazol-2-yl}-piperazin-2-one] was 140 nM. The value for `COc1cc(/C=C2\SC(N3CCNC(=O)C3)=NC2=O)ccc1Oc1ccc(Cl)cc1C(F)(F)F` [Example 61, 4-{5-[4-(4-Chloro-2-trifluoromethyl-phenoxy)-3-methoxy-benzylidene]-4-oxo-4,5-dihydro-thiazol-2-yl}-piperazin-2-one] was 1 nM. The value for `N#Cc1ccc(Oc2ccc(/C=C3\SC(N4CCC(O)C4)=NC3=O)cc2F)c(C(F)(F)F)c1` (stereo not shown) [Example 45, 4-{2-Fluoro-4-[2-(3-hydroxy-pyrrolidin-1-yl)-4-oxo-4H-thiazol-5-ylidenemethyl]-phenoxy}-3-trifluoromethyl-benzonitrile] was 39 nM.

For `COC(=O)c1ccc(Oc2ccc(/C=C3\SC(N4CCCC(O)C4)=NC3=O)cc2OC)c(C(F)(F)F)c1` (stereo not shown) [Example 53, 4-{4-[2-(3-Hydroxy-piperidin-1-yl)-4-oxo-4H-thiazol-5-ylidenemethyl]-2-methoxy-phenoxy}-3-trifluoromethyl-benzoic acid methyl ester], the EC50 came to 42 nM. With `COc1cc(/C=C2\SC(NCc3ccoc3)=NC2=O)ccc1Oc1ccc(C#N)cc1C(F)(F)F` [Example 88, 4-(4-{2-[(Furan-3-ylmethyl)-amino]-4-oxo-4H-thiazol-5-ylidenemethyl}-2-methoxy-phenoxy)-3-trifluoromethyl-benzonitrile] the figure was 15 nM; with `COc1cc(/C=C2\SC(N3CC(C(=O)O)C3)=NC2=O)ccc1Oc1ccccc1C(F)(F)F` [Example 119, 1-{5-[3-Methoxy-4-(2-trifluoromethyl-phenoxy)-benzylidene]-4-oxo-4,5-dihydro-thiazol-2-yl}-azetidine-3-carboxylic acid], 10 nM; with `COc1cc(/C=C2\SC(N3CC(C)OC(C)C3)=NC2=O)ccc1Oc1ccc(C#N)cc1C(F)(F)F` (stereo not shown) [Example 40, 4-{4-[2-(2,6-Dimethyl-morpholin-4-yl)-4-oxo-4H-thiazol-5-ylidenemethyl]-2-methoxy-phenoxy}-3-trifluoromethyl-benzonitrile], 7 nM. Turning to `COc1cc(/C=C2\SC(N3CCN(C(C)=O)CC3)=NC2=O)ccc1Oc1ccc(C#N)cc1C(F)(F)F` [Example 31, 4-{4-[2-(4-Acetyl-piperazin-1-yl)-4-oxo-4H-thiazol-5-ylidenemethyl]-2-methoxy-phenoxy}-3-trifluoromethyl-benzonitrile], a half-maximal effect (EC50) was put at 6 nM. The value for `COc1cc(/C=C2\SC(NCc3nnn[nH]3)=NC2=O)ccc1Oc1ccc(C#N)cc1C(F)(F)F` [Example 107, 4-(2-Methoxy-4-{4-oxo-2-[(1H-tetrazol-5-ylmethyl)-amino]-4H-thiazol-5-ylidenemethyl}-phenoxy)-3-trifluoromethyl-benzonitrile] was 5 nM; that for `COc1cc(/C=C2\SC(NCCNC(C)=O)=NC2=O)ccc1Oc1ccc(C#N)cc1C(F)(F)F` [Example 71, N-(2-{5-[4-(4-Cyano-2-trifluoromethyl-phenoxy)-3-methoxy-benzylidene]-4-oxo-4,5-dihydro-thiazol-2-ylamino}-ethyl)-acetamide] was 13 nM; that for `COc1cc(/C=C2\SC(N)=NC2=O)ccc1Oc1ccc(C#N)cc1Cl` [Compound 2, 4-[4-(2-Amino-4-oxo-4H-thiazol-5-ylidenemethyl)-2-methoxy-phenoxy]-3-chloro-benzonitrile] was 210 nM.
